Measurements reported in ChEMBL document CHEMBL3351698, “Melleolides induce rapid cell death in human primary monocytes and cancer cells” (Bioorg Med Chem, 2014).
Calls of active or inactive are those of the source. The calls are words filed in the database; no cut-off is given here. Starred links: 1 amine or outer side, 2 acyl side, 3 side chain; linkers in the order of their positions; H or OH if unused. Positions of bridges follow the written chain, without caps; N, C: chain ends. Non-standard residues stand in square brackets, D forms with d. Residues, ends and D or L forms follow the SMILES beside them. Chains are numbered I, II in the order given. Actinocin(9to1) = Cc1c2oc3c(C)ccc(C(=O)[*:1])c3nc-2c(C(=O)[*:2])c(N)c1=O; NMeV = CN[C@H](C(=O)O)C(C)C; Sar = CNCC(=O)O

How the values were obtained:
[1] = system: Monocyte; assay: Cytotoxicity against human primary monocytes up to 1 uM after 24 hrs by MTT assay; format: functional
[2] = system: MONO-MAC-6; assay: Cytotoxicity against human MONO-MAC-6 cells after 24 hrs by MTT assay; format: functional, cell-based; details: MONO-MAC-6, 24 h
[3] = system: K562; assay: Cytotoxicity against human K562 cells after 24 hrs by MTT assay; format: functional, cell-based; details: K562, 24 h
[4] = system: HeLa; assay: Cytotoxicity against human HeLa cells after 24 hrs by MTT assay; format: functional, cell-based
[5] = Cytotoxicity against human primary monocytes after 24 hrs by MTT assay; format: functional; details: Monocyte
[6] = system: THP-1; assay: Cytotoxicity against human THP1 cells after 24 hrs by MTT assay; format: functional, cell-based; details: THP-1, 24 h
[7] = system: Monocyte; assay: Induction of apoptosis in human primary monocytes assessed as nuclear fragmentation at 3 uM after 3 hrs by light microscopy; format: functional, cell-based
[8] = system: Monocyte; assay: Induction of apoptosis in human primary monocytes assessed as apoptotic bodies formation at 3 uM after 3 hrs by light microscopy; format: functional, cell-based
[9] = system: Monocyte; assay: Induction of cell death in human primary monocytes at 3 uM after 4 hrs by LDH release assay; format: functional, cell-based
[10] = system: Monocyte; assay: Cytotoxicity against human primary monocytes assessed as reduction in cell viability at 3 uM after 2 hrs by inverse MTT assay; format: functional
[11] = system: HeLa; assay: Cytotoxicity against human HeLa cells at 0.001 to 1 uM after 24 hrs by MTT assay; format: functional, cell-based
[12] = system: Monocyte; assay: Cytotoxicity against human primary monocytes at 0.001 to 1 uM after 24 hrs by MTT assay; format: functional
[13] = system: HeLa; assay: Cytotoxicity against human HeLa cells assessed as reduction in cell viability at 3 uM after 18 hrs by inverse MTT assay; format: functional, cell-based
[14] = system: Monocyte; assay: Induction of necrosis in human primary monocytes at 3 uM by PE Annexin V and 7-aminoactinomycin staining based flow cytometry; format: functional, cell-based
[15] = system: HeLa; assay: Cytotoxicity against human HeLa cells assessed as reduction in cell viability at 3 uM after 2 hrs by inverse MTT assay; format: functional, cell-based
[16] = system: Monocyte; assay: Cytotoxicity against human primary monocytes assessed as reduction in cell viability at 3 uM after 18 hrs by inverse MTT assay; format: functional
[17] = system: Monocyte; assay: Induction of apoptosis in human primary monocytes at 3 uM by PE Annexin V and 7-aminoactinomycin staining based flow cytometry; format: functional, cell-based
[18] = system: HeLa; assay: Cytotoxicity against human HeLa cells assessed as reduction in cell viability at 25 uM after 2 to 5 hrs by inverse MTT assay; format: functional, cell-based
[19] = system: Monocyte; assay: Cytotoxicity against human primary monocytes assessed as reduction in cell viability at 25 uM after 2 to 5 hrs by inverse MTT assay; format: functional
[20] = system: Monocyte; assay: Cytotoxicity against human primary monocytes assessed as reduction in cell viability at 25 uM after 18 hrs by inverse MTT assay; format: functional
[21] = system: HeLa; assay: Cytotoxicity against human HeLa cells assessed as reduction in cell viability at 25 uM after 18 hrs by inverse MTT assay; format: functional, cell-based
[22] = Reduction in metabolic activity in mitochondria isolated from human MONO-MAC-6 cells after 3 hrs at 10 uM by MTT assay; format: functional
[23] = system: HeLa; assay: Cytotoxicity against human HeLa cells assessed as reduction in cell viability at 1 uM after 2 to 5 hrs by inverse MTT assay; format: functional, cell-based
[24] = system: Monocyte; assay: Cytotoxicity against human primary monocytes assessed as reduction in cell viability at 1 uM after 2 to 5 hrs by inverse MTT assay; format: functional
[25] = system: HeLa; assay: Cytotoxicity against human HeLa cells assessed as reduction in cell viability at 1 uM after 18 hrs by inverse MTT assay; format: functional, cell-based
[26] = system: Monocyte; assay: Cytotoxicity against human primary monocytes assessed as reduction in cell viability at 1 uM after 18 hrs by inverse MTT assay; format: functional
[27] = Reduction in metabolic activity in mitochondria isolated from human MONO-MAC-6 cells after 3 hrs up to 10 uM by MTT assay; format: functional; parameters: scale not given: the % may be the effect or the level left
[28] = system: Monocyte; assay: Induction of morphological changes in human primary monocytes assessed as plasma membrane rupture at 5 uM after 1 hr by light microscopy; format: functional, cell-based
[29] = system: Monocyte; assay: Induction of morphological changes in human primary monocytes assessed as blebs formation at 5 uM after 15 mins by light microscopy; format: functional, cell-based
[30] = system: Monocyte; assay: Induction of necrosis in human primary monocytes at 5 uM after 1 to 3 hrs by light microscopy; format: functional, cell-based
[31] = system: Monocyte; assay: Induction of necrosis in human primary monocytes at 5 uM by PE Annexin V and 7-aminoactinomycin staining based flow cytometry; format: functional, cell-based
[32] = Cytotoxicity against human primary monocytes assessed as reduction in cell viability at 5 uM after 2 hrs by inverse MTT assay; format: functional, Monocyte
[33] = system: Monocyte; assay: Induction of morphological changes in human primary monocytes assessed as blebs formation at 5 uM after 1 hr by light microscopy; format: functional, cell-based
[34] = system: Monocyte; assay: Induction of cell death in human primary monocytes at 0.1 to 10 uM after 4 hrs by LDH release assay; format: functional, cell-based
[35] = system: Monocyte; assay: Induction of apoptosis in human primary monocytes at 5 uM by PE Annexin V and 7-aminoactinomycin staining based flow cytometry; format: functional, cell-based
[36] = system: HeLa; assay: Cytotoxicity against human HeLa cells assessed as reduction in cell viability at 5 uM after 2 hrs by inverse MTT assay; format: functional

In the case of `CC[C@H](C)[C@H](NC(=O)[C@H]1CCCCN1C)C(=O)N(C)[C@H](CCc1nc(C(=O)N[C@@H](Cc2ccccc2)C[C@H](C)C(=O)O)cs1)C(C)C`, the Activity [1] is reported as “inactive” and the EC50 [2] is reported as 0.03 µM.
With `COc1cc(C)c(C(=O)O[C@@H]2C[C@@]3(C)C2=C(C=O)[C@@H](O)[C@@H]2CC(C)(C)C[C@@H]23)c(O)c1` the EC50 [3] was 4.1 µM, the EC50 [4] was 12.3 µM and the EC50 [5] was 3.1 µM. For the same molecule, the EC50 [6] was 2.4 µM and the EC50 [2] was 2.9 µM.
With `CN[C@@H]1C[C@H]2O[C@@](C)([C@@H]1OC)n1c3ccccc3c3c4c(c5c6ccccc6n2c5c31)C(=O)NC4` the Activity [7] was “Active”, the Activity [8] was “Active” and the Activity [9] was “Active”. The Activity [10] was “inactive”, the Activity [11] was “Active” and the Activity [12] was “inactive”. The Activity [13] was “Active”, the Activity [14] was “inactive” and the Activity [15] was “inactive”. The Activity [16] was “Active” and the Activity [17] was “Active”.
With `C[C@@H]1C[C@@H]([C@H](O)CC2CC(=O)NC(=O)C2)C(=O)[C@@H](C)C1` the Activity [18] was “inactive”, the Activity [19] was “inactive” and the Activity [20] was “Active”. The Activity [21] was “Active”.
In the case of `N#CC(C#N)=NNc1cccc(Cl)c1`, the Activity [22] is reported as “Active”.
In the case of `Cc1c2oc3c(C)ccc(C(=O)N[C@@H]4C(=O)N[C@H](C(C)C)C(=O)N5CCC[C@H]5C(=O)N(C)CC(=O)N(C)[C@@H](C(C)C)C(=O)O[C@@H]4C)c3nc-2c(C(=O)N[C@@H]2C(=O)N[C@H](C(C)C)C(=O)N3CCC[C@H]3C(=O)N(C)CC(=O)N(C)[C@@H](C(C)C)C(=O)O[C@@H]2C)c(N)c1=O` (I: T[dV]P[Sar][NMeV] / II: T[dV]P[Sar][NMeV]; ester I:1-I:C, II:1-II:C; linker I:N-II:N via Actinocin(9to1)), the Activity [23] is reported as “inactive”, the Activity [24] is reported as “inactive” and the Activity [25] is reported as “Active”. The Activity [26] was “Active”.
Work on `COc1cc(O)c(C(=O)O[C@@H]2C[C@]3(C)[C@H]4CC(C)(C)C[C@H]4C=C(C=O)[C@]23O)c(C)c1Cl` [ARMILLARIDIN] yielded an EC50 [3] of 8.9 µM, an EC50 [4] of 9.2 µM and an EC50 [5] of 12.3 µM. It also gave an EC50 [6] of 4.5 µM and an EC50 [2] of 5.6 µM.
`COc1cc(C)c(C(=O)O[C@@H]2C[C@]3(C)[C@H]4CC(C)(C)C[C@H]4C=C(C=O)[C@]23O)c(O)c1` [ARMILLARIN] showed an EC50 [3] of 23.7 µM, an EC50 [4] of 16.7 µM and an EC50 [5] of 43.2 µM. For the same molecule, the EC50 [6] was 4.8 µM and the EC50 [2] was 6.6 µM.
With `COc1cc(O)c(C(=O)O[C@@H]2C[C@@]3(C)C2=C(C=O)[C@@H](O)[C@@H]2CC(C)(C)C[C@@H]23)c(C)c1Cl` [ARNAMIAL] the EC50 [3] was 2.3 µM, the EC50 [4] was 4.9 µM and the EC50 [5] was 3.8 µM. For the same molecule, the EC50 [6] was 2.9 µM and the EC50 [2] was 3.2 µM.
In the case of `Cc1cc(O)cc(O)c1C(=O)O[C@@H]1C[C@@]2(C)C1=C(C=O)[C@@H](O)[C@@H]1CC(C)(C)C[C@@H]12` [DEHYDROARMILLYLORSELLINATE], the Activity [27] is reported as 50%, the EC50 [3] is reported as 5 µM and the Activity [28] is reported as “Active”. The Activity [29] was “Active”, the Activity [30] was “Active” and the Activity [31] was “Active”. For the same molecule, the EC50 [4] was 1.6 µM, the Activity [32] was 40% and the Activity [33] was “Active”. For the same molecule, the EC50 [5] was 2.3 µM, the EC50 [6] was 3 µM and the Activity [34] was “Active”. The Activity [35] was “inactive”, the Activity [36] was 40% and the EC50 [2] was 4.2 µM.
For `COc1cc(O)c(C(=O)O[C@@H]2C[C@]3(C)[C@H]4[C@@H](O)C(C)(C)C[C@@]4(O)C=C(CO)[C@]23O)c(C)c1Cl` [MELLEOLIDE D], the EC50 [3] was greater than 100 µM, the EC50 [4] was greater than 100 µM and the EC50 [5] was 60.7 µM. The EC50 [6] was greater than 100 µM, the Activity [34] was “inactive” and the EC50 [2] was 48.6 µM.
